We go through one molecule from US20120245137A1 (Zalicus Pharmaceuticals Ltd., priority 2009, published 2012).

Assay [1] has as its target human α1H T-type channels (Homo sapiens, UniProt O95180). Put plainly: T-type calcium channel block, whole cell patch clamp, α1H. Format: cell-based. The settings on record: HEK cells stably expressing human α1H; mainly non-inactivated protocol; values above 10,000 nM represented as 10000. The procedure, abridged: (§1)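 Cells are stable HEK 293 lines carrying human α1G or α1H channels, patched in whole-cell mode. Resting block comes from the non-inactivated pre-pulse; voltage-dependent block from the inactivated protocol.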

In assay [2] the target is N-type calcium channel subunits (α1B, α2δ, and β3a) (Homo sapiens, UniProt Q00975). Put plainly: Block of Cav2.2 channel, whole cell voltage clamp, manual and PatchXpress. In kind it is cell-based. The settings on record: Table 5; table follows Assay Example 3 (whole cell voltage clamp / PatchXpress); assay not given. The procedure, abridged: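 Percent block taken as current amplitude ratio with versus without compound, applied in rising doses; IC50 fitted where one cell received multiple doses. Protocol: 50 ms pulses to +20 mV at 0.067 Hz from […] or −90 mV holding; P/n leak subtraction, no junction-potential correction; manual and PatchXpress recordings.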

The test system of another assay is T-type calcium channel. Put plainly: T-type channel blocking activity as summarised in text (subunit not stated). The settings on record: Table 4. In kind it is cell-based, human. As for the experimental part:
T-type calcium channel blocking activity was assayed in human embryonic kidneycells, HEK 293 (Invitrogen), stably transfected with the T-type calcium channel subunits. Briefly, cells were cultured in Dulbecco's modified eagle medium (DMEM) supplemented with 10% fetal bovine serum, 200 U/ml penicillin, and 0.2 mg/mL streptomycin at 37° C. with 5% CO2. At 85% confluency, cells were split with 0.25% trypsin/1 mM EDTA and plated at 10% confluency on glass coverslips. At 12 hours, the medium was replaced, and the cells stably transfected using a standard calcium phosphate protocol and the appropriate calcium channel cDNA's. Fresh DMEM was supplied, and the cells transferred to 28° C./5% CO2. Cells were incubated for 1 to 2 days prior to whole cell recording.
Standard patch-clamp techniques were employed to identify blockers of T-type currents. Briefly, previously described HEK cell lines stably expressing human α1G, α1H, and α1I T-type channels were used for all the recordings (passage #: 4-20, 37° C., 5% CO2). Whole cell patch clamp experiments were performed using an Axopatch 200B amplifier (Axon Instruments, Burlingame, Calif.) linked to a personal computer equipped with pCLAMP software. Data were analyzed using Clampfit (Axon Instruments) and SigmaPlot 4.0 (Jandel Scientific). […]

Assay [3] addresses human α1G T-type channels (Homo sapiens, UniProt O43497). Put plainly: T-type calcium channel block, whole cell patch clamp, α1G. The settings on record: HEK cells stably expressing human α1G; mainly non-inactivated protocol; values above 10,000 nM represented as 10000. In kind it is cell-based. The procedure, abridged: as §1
Background: The patch-clamp technique gives a direct electrical read-out from membranes.

Chain of human α1G T-type channels (O43497 whole entry): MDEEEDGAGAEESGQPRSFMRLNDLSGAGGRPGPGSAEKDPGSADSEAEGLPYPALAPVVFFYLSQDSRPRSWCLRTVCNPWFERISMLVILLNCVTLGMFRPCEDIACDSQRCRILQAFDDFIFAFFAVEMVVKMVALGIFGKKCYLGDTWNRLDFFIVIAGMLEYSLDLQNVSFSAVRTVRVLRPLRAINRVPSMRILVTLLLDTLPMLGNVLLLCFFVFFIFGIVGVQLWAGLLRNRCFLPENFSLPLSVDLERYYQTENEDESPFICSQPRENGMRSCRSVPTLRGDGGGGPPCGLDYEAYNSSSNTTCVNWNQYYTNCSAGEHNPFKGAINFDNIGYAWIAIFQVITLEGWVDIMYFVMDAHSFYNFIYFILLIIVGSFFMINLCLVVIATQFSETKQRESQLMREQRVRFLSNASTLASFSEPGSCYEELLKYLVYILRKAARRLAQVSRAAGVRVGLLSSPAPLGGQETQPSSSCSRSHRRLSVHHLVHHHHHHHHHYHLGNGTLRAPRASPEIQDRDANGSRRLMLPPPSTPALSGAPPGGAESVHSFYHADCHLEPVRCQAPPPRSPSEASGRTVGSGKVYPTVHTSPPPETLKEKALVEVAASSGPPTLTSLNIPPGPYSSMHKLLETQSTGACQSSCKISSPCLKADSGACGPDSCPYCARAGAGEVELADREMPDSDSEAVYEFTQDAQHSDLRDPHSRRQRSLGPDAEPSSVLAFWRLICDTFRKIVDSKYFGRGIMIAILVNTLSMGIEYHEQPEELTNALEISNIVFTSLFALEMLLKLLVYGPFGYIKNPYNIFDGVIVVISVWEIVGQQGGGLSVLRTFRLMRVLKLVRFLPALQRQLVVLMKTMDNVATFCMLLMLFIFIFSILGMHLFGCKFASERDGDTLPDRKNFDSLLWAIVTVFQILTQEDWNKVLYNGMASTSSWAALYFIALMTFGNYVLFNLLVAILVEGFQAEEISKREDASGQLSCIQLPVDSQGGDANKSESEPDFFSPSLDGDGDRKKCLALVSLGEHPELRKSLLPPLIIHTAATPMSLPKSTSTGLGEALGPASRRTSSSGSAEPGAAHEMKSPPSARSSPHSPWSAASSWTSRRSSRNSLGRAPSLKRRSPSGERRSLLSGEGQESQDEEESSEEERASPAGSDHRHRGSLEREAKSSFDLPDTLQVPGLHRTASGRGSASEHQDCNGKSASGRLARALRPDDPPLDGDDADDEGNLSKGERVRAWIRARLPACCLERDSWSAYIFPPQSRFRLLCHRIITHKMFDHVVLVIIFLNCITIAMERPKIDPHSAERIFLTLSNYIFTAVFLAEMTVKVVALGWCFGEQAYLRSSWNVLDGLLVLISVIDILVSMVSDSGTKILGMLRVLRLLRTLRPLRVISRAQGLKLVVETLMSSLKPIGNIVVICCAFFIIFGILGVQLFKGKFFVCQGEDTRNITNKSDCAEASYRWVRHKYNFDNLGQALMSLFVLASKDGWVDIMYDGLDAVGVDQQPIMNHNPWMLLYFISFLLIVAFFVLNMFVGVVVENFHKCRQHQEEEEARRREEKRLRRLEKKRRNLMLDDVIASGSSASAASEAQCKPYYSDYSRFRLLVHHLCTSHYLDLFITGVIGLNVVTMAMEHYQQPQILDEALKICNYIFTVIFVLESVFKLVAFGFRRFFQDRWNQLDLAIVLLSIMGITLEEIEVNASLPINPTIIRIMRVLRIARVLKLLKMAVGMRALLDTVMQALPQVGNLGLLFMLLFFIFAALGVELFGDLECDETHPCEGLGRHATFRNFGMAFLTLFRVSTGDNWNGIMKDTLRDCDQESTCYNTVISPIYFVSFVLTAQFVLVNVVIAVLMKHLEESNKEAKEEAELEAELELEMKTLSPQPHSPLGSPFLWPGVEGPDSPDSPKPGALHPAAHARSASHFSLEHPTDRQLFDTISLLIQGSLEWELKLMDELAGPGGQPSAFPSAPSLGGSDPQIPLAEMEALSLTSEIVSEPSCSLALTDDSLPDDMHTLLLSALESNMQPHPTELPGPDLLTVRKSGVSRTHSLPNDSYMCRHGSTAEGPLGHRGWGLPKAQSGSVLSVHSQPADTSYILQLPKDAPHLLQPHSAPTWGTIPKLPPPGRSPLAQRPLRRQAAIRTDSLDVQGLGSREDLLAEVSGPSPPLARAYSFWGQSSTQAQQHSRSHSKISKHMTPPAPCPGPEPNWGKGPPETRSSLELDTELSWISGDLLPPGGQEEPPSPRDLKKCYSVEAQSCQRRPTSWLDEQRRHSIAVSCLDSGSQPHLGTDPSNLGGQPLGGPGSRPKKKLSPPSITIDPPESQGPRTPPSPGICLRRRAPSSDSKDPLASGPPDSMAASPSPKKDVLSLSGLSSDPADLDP
Chain of human α1H T-type channels (O95180 whole entry): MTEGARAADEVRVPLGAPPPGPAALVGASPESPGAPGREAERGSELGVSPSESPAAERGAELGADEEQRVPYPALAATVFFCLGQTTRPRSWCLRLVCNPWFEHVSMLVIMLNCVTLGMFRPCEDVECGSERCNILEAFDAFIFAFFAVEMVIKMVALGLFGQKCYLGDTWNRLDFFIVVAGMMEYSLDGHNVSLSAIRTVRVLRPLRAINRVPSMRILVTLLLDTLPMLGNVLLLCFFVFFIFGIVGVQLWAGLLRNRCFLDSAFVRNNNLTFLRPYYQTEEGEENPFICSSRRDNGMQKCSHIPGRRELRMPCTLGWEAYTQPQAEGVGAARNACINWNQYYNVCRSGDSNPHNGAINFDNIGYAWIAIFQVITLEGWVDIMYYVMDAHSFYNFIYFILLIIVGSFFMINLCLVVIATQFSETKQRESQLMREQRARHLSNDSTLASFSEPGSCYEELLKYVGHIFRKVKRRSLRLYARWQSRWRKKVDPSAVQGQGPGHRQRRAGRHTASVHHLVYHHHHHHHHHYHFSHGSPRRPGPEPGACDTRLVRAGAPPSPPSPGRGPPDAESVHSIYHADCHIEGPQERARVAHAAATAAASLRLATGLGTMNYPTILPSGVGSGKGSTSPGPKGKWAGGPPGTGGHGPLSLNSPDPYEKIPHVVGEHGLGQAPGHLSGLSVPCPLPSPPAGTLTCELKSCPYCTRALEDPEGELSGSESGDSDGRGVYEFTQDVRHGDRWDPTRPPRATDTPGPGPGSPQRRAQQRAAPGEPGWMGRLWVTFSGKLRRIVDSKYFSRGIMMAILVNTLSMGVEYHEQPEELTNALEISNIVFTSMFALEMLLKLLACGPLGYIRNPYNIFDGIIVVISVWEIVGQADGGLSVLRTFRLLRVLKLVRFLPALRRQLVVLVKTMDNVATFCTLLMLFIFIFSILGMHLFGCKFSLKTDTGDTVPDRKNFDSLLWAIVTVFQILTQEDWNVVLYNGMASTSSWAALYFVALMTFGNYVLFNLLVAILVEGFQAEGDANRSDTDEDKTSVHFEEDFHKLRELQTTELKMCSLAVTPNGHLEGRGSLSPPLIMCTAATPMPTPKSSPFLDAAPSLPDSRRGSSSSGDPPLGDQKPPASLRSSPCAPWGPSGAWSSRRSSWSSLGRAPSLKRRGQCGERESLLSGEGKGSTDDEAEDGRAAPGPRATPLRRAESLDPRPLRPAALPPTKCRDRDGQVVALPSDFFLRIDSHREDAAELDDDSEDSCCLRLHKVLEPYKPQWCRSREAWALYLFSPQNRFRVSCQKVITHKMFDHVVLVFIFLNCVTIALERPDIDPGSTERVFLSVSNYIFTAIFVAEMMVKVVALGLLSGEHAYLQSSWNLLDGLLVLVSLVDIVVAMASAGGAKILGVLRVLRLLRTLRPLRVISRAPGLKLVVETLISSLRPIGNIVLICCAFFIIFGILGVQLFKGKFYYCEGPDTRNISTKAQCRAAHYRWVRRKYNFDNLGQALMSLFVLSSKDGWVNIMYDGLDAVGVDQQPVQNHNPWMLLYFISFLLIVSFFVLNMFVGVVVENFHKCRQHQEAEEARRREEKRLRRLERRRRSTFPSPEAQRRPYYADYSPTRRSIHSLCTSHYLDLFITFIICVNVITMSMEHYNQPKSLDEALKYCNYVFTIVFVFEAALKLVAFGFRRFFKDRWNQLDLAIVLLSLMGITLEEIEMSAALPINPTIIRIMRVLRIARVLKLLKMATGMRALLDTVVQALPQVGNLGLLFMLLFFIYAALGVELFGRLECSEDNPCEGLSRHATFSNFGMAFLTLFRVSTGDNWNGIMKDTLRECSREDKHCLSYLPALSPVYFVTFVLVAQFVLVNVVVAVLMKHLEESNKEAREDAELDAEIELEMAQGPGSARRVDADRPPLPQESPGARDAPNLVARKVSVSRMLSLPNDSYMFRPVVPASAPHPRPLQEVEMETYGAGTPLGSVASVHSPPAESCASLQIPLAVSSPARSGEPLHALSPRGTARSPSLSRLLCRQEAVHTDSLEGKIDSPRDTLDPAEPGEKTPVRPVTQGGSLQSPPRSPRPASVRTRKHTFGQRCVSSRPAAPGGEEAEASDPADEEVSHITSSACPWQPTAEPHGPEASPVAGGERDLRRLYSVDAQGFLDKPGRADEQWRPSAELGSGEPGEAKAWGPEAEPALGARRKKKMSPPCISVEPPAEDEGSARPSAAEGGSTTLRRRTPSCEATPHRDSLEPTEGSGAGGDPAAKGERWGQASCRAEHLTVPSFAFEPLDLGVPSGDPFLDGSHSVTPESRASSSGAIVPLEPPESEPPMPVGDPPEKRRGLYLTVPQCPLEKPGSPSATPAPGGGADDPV

Usually IC50 stands for the concentration needed to halve the response being measured. With `COc1cc(F)cc(C(=O)N[C@H]2CC[C@H](S(=O)(=O)c3cccc(C(F)(F)F)c3)CC2)c1` [Compound 59, 3-fluoro-5-methoxy-N-((1R,4R)-4-(3-(trifluoromethyl)phenylsulfonyl)cyclohexyl)benzamide], the figures for the half-maximal inhibitory concentration (IC50) in assay [1], in assay [2] and in assay [3] were 8.09 µM, 440 nM and 9.13 µM, respectively. Besides, in the assay with T-type calcium channel, the “activity (IC50), T-type channel block” value is “lowest IC50”.
